# Measurements from ChEMBL document CHEMBL3217486, “Novel indolizine compounds as potent inhibitors of phosphodiesterase IV (PDE4): structureactivity relationship” (Medchemcomm, 2011).
# Molecular target: Phosphodiesterase 4 (Homo sapiens, UniProt P27815+Q08499+Q07343+Q08493)
# Assay: Inhibition of PDE4 isolated from human U937 cells using [3H]-cAMP as substrate after 30 mins by liquid scintillation counting analysis
# Type: cell-free
# Settings: u-937
row,Compound,IC50 [µM]
1,O=C(Nc1cccnc1)C(=O)c1cc(Cc2ccccc2)n2ccccc12,0.348
2,O=C(Nc1cccnc1)C(=O)c1cc(Cc2ccc(F)cc2)n2ccccc12,0.341
3,O=C(Nc1cccnc1)C(=O)c1cc(Cc2ccc(Cl)cc2)n2ccccc12,0.165
4,COc1ccc(Cc2cc(C(=O)C(=O)Nc3cccnc3)c3ccccn23)cc1,0.447
5,O=C(Nc1cccnc1)C(=O)c1cc(Cc2ccc(O)cc2)n2ccccc12,0.327
6,O=C(Nc1cccnc1)C(=O)c1cc(Cc2ccc([N+](=O)[O-])cc2)n2ccccc12,0.569
7,Nc1ccc(Cc2cc(C(=O)C(=O)Nc3cccnc3)c3ccccn23)cc1,0.824
8,N#Cc1ccc(Cc2cc(C(=O)C(=O)Nc3cccnc3)c3ccccn23)cc1,0.719
9,O=C(Nc1cccnc1)C(=O)c1cc(Cc2ccc(C(F)(F)F)cc2)n2ccccc12,0.372
10,CC(C)c1ccc(Cc2cc(C(=O)C(=O)Nc3cccnc3)c3ccccn23)cc1,0.362
11,O=C(Nc1cccnc1)C(=O)c1cc(Cc2ccc(F)cc2)n2ccc(O)cc12,0.414
12,O=C(Nc1cccnc1)C(=O)c1cc(Cc2ccc(F)cc2)n2ccc(Cl)cc12,0.239
13,COc1ccn2c(Cc3ccc(Cl)cc3)cc(C(=O)C(=O)Nc3cccnc3)c2c1,1
14,N#Cc1ccc(Cc2cc(C(=O)C(=O)Nc3cccnc3Cl)c3ccccn23)cc1,4.7
15,O=C(Nc1c(Cl)ccnc1Cl)C(=O)c1cc(Cc2ccc(Cl)cc2)n2ccccc12,0.084
16,N#Cc1ccc(Cc2cc(C(=O)C(=O)Nc3c(Cl)ccnc3Cl)c3ccccn23)cc1,0.25
17,O=C(Nc1c(Br)ccnc1Br)C(=O)c1cc(Cc2ccc(F)cc2)n2ccccc12,10
18,COc1ccnc(OC)c1NC(=O)C(=O)c1cc(Cc2ccc(C#N)cc2)n2ccccc12,10
19,COc1ccc(NC(=O)C(=O)c2cc(Cc3ccc(C#N)cc3)n3ccccc23)cn1,1.5
20,N#Cc1ccc(Cc2cc(C(=O)C(=O)Nc3c(Cl)cncc3Cl)c3ccccn23)cc1,0.116

row,Compound,IC50 [µM]
1,O=C(Nc1c(Cl)cncc1Cl)C(=O)c1cc(Cc2ccc(Cl)cc2)n2ccccc12,0.016
2,COc1ccc(Cc2cc(C(=O)C(=O)Nc3c(Cl)cncc3Cl)c3ccccn23)cc1,0.04
3,O=C(Nc1c(Cl)cncc1Cl)C(=O)c1cc(Cc2ccc(O)cc2)n2ccccc12,0.015
4,O=C(Nc1c(Cl)cncc1Cl)C(=O)c1cc(Cc2ccc(Cl)cc2)n2ccc(Cl)cc12,0.026
5,O=C(Nc1c(Cl)cncc1Cl)C(=O)c1cc(Cc2ccc(F)cc2)n2ccc(Cl)cc12,0.028
6,O=C(Nc1c(Cl)cncc1Cl)C(=O)c1cc(Cc2ccc(F)cc2)n2ccc(F)cc12,0.013
7,O=C(Nc1c(Cl)cncc1Cl)C(=O)c1cc(Cc2ccc(O)cc2)n2ccc(Cl)cc12,0.002
8,COc1ccc(Cc2cc(C(=O)C(=O)Nc3c(Cl)cncc3Cl)c3cc(Cl)ccn23)cc1,0.012
9,N#Cc1ccc(Cc2cc(C(=O)C(=O)Nc3c(Cl)cncc3Cl)c3cc(Cl)ccn23)cc1,0.082
10,O=C(Nc1c(Cl)c[n+]([O-])cc1Cl)C(=O)c1cc(Cc2ccc(F)cc2)n2ccc(Cl)cc12,0.054
11,O=C(Nc1c(Cl)c[n+]([O-])cc1Cl)C(=O)c1cc(Cc2ccc(F)cc2)n2ccc(F)cc12,0.018
12,O=C(Nc1c(Cl)c[n+]([O-])cc1Cl)C(=O)c1cc(Cc2ccc(Cl)cc2)n2ccccc12,0.019
13,COc1ccc(Cc2cc(C(=O)C(=O)Nc3c(Cl)c[n+]([O-])cc3Cl)c3ccccn23)cc1,0.08
14,O=C(Nc1c(Cl)c[n+]([O-])cc1Cl)C(=O)c1cc(Cc2ccc(O)cc2)n2ccccc12,0.029
15,O=C(Nc1c(Cl)cccc1Cl)C(=O)c1cc(Cc2ccc(F)cc2)n2ccccc12,10
16,O=C(Nc1c(Cl)cc(C(F)(F)F)cc1Cl)C(=O)c1cc(Cc2ccc(F)cc2)n2ccccc12,10
17,O=C(Nc1c(Cl)cncc1Cl)C(=O)c1cc(Cc2ccc(F)cc2)c2ccccn12,0.006
18,O=C(Nc1c(Cl)c[n+]([O-])cc1Cl)C(=O)c1cc(Cc2ccc(F)cc2)c2ccccn12,0.029
19,O=C(Nc1c(Cl)cncc1Cl)C(=O)c1cn(Cc2ccc(F)cc2)c2ccc(O)cc12 [AWD-12-281],0.014
